Assays:
Mus musculus [1] = assay: Antiobesity activity in diet-induced obese C57Bl/6 mouse assessed as reduction in body weight at 50 mg/kg/day, po for 4 weeks administered with high-fat diet; type: functional; set-up: scale not given: the % may be the effect or the level left
Mus musculus [2] = assay: Antiobesity activity in diet-induced obese C57Bl/6 mouse assessed as loss of liver weight at 50 mg/kg/day, po for 4 weeks administered with high-fat diet; type: functional
Mus musculus [3] = assay: Antiobesity activity in diet-induced obese C57Bl/6 mouse assessed as loss of liver weight at 150 mg/kg/day, po for 4 weeks administered with high-fat diet; type: functional
Mus musculus [4] = assay: Antiobesity activity in diet-induced obese C57Bl/6 mouse assessed as loss of epididymal fat mass at 50 mg/kg/day, po for 4 weeks administered with high-fat diet; type: functional
Mus musculus [5] = assay: Antiobesity activity in diet-induced obese C57Bl/6 mouse assessed as loss of epididymal fat mass at 150 mg/kg/day, po for 4 weeks administered with high-fat diet; type: functional
Mus musculus [6] = assay: Antiobesity activity in diet-induced obese C57Bl/6 mouse assessed as reduction in hepatic triglyceride level at 50 mg/kg/day, po for 4 weeks administered with high-fat diet by Oil Red O staining-based histological method; type: functional; set-up: scale not given: the % may be the effect or the level left
[7] = Cmax in Sprague-Dawley rat at 5 mg/kg, iv; type: ADME, organism-based; set-up: dose 5 mg/kg, route intravenous; details: in vivo
[8] = Tmax in Sprague-Dawley rat at 5 mg/kg, iv; type: ADME, organism-based; set-up: dose 5 mg/kg, route intravenous; details: in vivo
[9] = Half life in Sprague-Dawley rat at 5 mg/kg, iv; type: ADME, organism-based; set-up: dose 5 mg/kg, route intravenous; details: in vivo
[10] = AUC (0 to t) in Sprague-Dawley rat at 5 mg/kg, iv; type: ADME, organism-based; set-up: dose 5 mg/kg, route intravenous; details: plasma
[11] = Volume of distribution in Sprague-Dawley rat at 5 mg/kg, iv; type: ADME, organism-based; set-up: dose 5 mg/kg, route intravenous; details: in vivo
[12] = Total clearance in Sprague-Dawley rat at 5 mg/kg, iv; type: ADME, organism-based; set-up: dose 5 mg/kg, route intravenous; details: in vivo
[13] = Cmax in Sprague-Dawley rat at 20 mg/kg, po; type: ADME, organism-based; set-up: dose 20 mg/kg, route oral; details: in vivo
[14] = Tmax in Sprague-Dawley rat at 20 mg/kg, po; type: ADME, organism-based; set-up: dose 20 mg/kg, route oral; details: in vivo
[15] = Half life in Sprague-Dawley rat at 20 mg/kg, po; type: ADME, organism-based; set-up: dose 20 mg/kg, route oral; details: in vivo
[16] = AUC (0 to t) in Sprague-Dawley rat at 20 mg/kg, po; type: ADME, organism-based; set-up: dose 20 mg/kg, route oral; details: plasma
Rattus norvegicus = assay: Volume of distribution in Sprague-Dawley rat at 20 mg/kg, po; type: ADME, organism-based; set-up: dose 20 mg/kg, route oral; details: in vivo
[17] = Total clearance in Sprague-Dawley rat at 20 mg/kg, po; type: ADME, organism-based; set-up: dose 20 mg/kg, route oral; details: in vivo
[18] = Oral bioavailability in Sprague-Dawley rat at 20 mg/kg; type: ADME, organism-based; details: in vivo
[19] = Solubility of the compound at room temperature; type: physicochemical
Mus musculus [20] = assay: Antiobesity activity in diet-induced obese C57Bl/6 mouse assessed as reduction in body weight at 20 mg/kg/day, po for 4 weeks administered with high-fat diet; type: functional; set-up: scale not given: the % may be the effect or the level left
Mus musculus [21] = assay: Toxicity in diet-induced obese C57Bl/6 mouse assessed as change in food intake at 20 mg/kg/day, po for 4 weeks administered with high-fat diet; type: organism-based; set-up: route oral; details: in vivo, 672 h
Mus musculus [22] = assay: Antiobesity activity in diet-induced obese C57Bl/6 mouse assessed as loss of liver weight at 20 mg/kg/day, po for 4 weeks administered with high-fat diet; type: functional
Mus musculus [23] = assay: Antiobesity activity in diet-induced obese C57Bl/6 mouse assessed as loss of epididymal fat mass at 20 mg/kg/day, po for 4 weeks administered with high-fat diet; type: functional
Mus musculus [24] = assay: Antiobesity activity in diet-induced obese C57Bl/6 mouse assessed as reduction in fasting blood glucose at 20 mg/kg/day, po for 4 weeks administered with high-fat diet (reference value: 4.88 +/- 0.75 mM); type: functional
Mus musculus [25] = assay: Antiobesity activity in diet-induced obese C57Bl/6 mouse assessed as change in insulin level at 20 mg/kg/day, po for 4 weeks administered with high-fat diet (reference value: 4.31 +/- .82 mU); type: functional
Mus musculus [26] = assay: Toxicity in diet-induced obese C57Bl/6 mouse assessed as change in ALT level at 20 mg/kg/day, po for 4 weeks administered with high-fat diet (reference value: 29.6 +/- 8.29 U/L); type: organism-based; set-up: route oral; details: in vivo, 672 h
Mus musculus [27] = assay: Toxicity in diet-induced obese C57Bl/6 mouse assessed as change in AST level at 20 mg/kg/day, po for 4 weeks administered with high-fat diet (reference value: 128.00 +/- 20.59 U/L); type: organism-based; set-up: route oral; details: in vivo, 672 h
Mus musculus [28] = assay: Antiobesity activity in diet-induced obese C57Bl/6 mouse assessed as reduction in triglyceride level at 20 mg/kg/day, po for 4 weeks administered with high-fat diet (reference value: 0.96 +/- 0.14 mM); type: functional
Mus musculus [29] = assay: Antiobesity activity in diet-induced obese C57Bl/6 mouse assessed as reduction in LDL level at 20 mg/kg/day, po for 4 weeks administered with high-fat diet (reference value: 0.13 +/- 0.02 mM); type: functional
Mus musculus [30] = assay: Antiobesity activity in diet-induced obese C57Bl/6 mouse assessed as increase in HDL level at 20 mg/kg/day, po for 4 weeks administered with high-fat diet (reference value: 1.02 +/- 0.13 mM); type: functional
Mus musculus [31] = assay: Antiobesity activity in diet-induced obese C57Bl/6 mouse assessed as reduction in FFA level at 20 mg/kg/day, po for 4 weeks administered with high-fat diet (reference value: 25.07 +/- 3.49 ng/L); type: functional
Mus musculus [32] = assay: Antiobesity activity in diet-induced obese C57Bl/6 mouse assessed as reduction in HOMA-IR value at 20 mg/kg/day, po for 4 weeks administered with high-fat diet (reference value: 0.94 +/- 0.23 no_unit); type: functional
Mus musculus [33] = assay: Antiobesity activity in diet-induced obese C57Bl/6 mouse assessed as reduction in fasting blood glucose at 50 mg/kg/day, po for 4 weeks administered with high-fat diet (reference value: 4.88 +/- 0.75 mM); type: functional
Mus musculus [34] = assay: Antiobesity activity in diet-induced obese C57Bl/6 mouse assessed as change in insulin level at 50 mg/kg/day, po for 4 weeks administered with high-fat diet (reference value: 4.31 +/- .82 mU); type: functional
Mus musculus [35] = assay: Toxicity in diet-induced obese C57Bl/6 mouse assessed as change in ALT level at 50 mg/kg/day, po for 4 weeks administered with high-fat diet (reference value: 29.6 +/- 8.29 U/L); type: organism-based; set-up: route oral; details: in vivo, 672 h
Mus musculus [36] = assay: Toxicity in diet-induced obese C57Bl/6 mouse assessed as change in AST level at 50 mg/kg/day, po for 4 weeks administered with high-fat diet (reference value: 128.00 +/- 20.59 U/L); type: organism-based; set-up: route oral; details: in vivo, 672 h
Mus musculus [37] = assay: Antiobesity activity in diet-induced obese C57Bl/6 mouse assessed as reduction in triglyceride level at 50 mg/kg/day, po for 4 weeks administered with high-fat diet (reference value: 0.96 +/- 0.14 mM); type: functional
Mus musculus [38] = assay: Antiobesity activity in diet-induced obese C57Bl/6 mouse assessed as reduction in LDL level at 50 mg/kg/day, po for 4 weeks administered with high-fat diet (reference value: 0.13 +/- 0.02 mM); type: functional
Mus musculus [39] = assay: Antiobesity activity in diet-induced obese C57Bl/6 mouse assessed as increase in HDL level at 50 mg/kg/day, po for 4 weeks administered with high-fat diet (reference value: 1.02 +/- 0.13 mM); type: functional
Mus musculus [40] = assay: Antiobesity activity in diet-induced obese C57Bl/6 mouse assessed as reduction in FFA level at 50 mg/kg/day, po for 4 weeks administered with high-fat diet (reference value: 25.07 +/- 3.49 ng/L); type: functional
Mus musculus [41] = assay: Antiobesity activity in diet-induced obese C57Bl/6 mouse assessed as reduction in HOMA-IR value at 50 mg/kg/day, po for 4 weeks administered with high-fat diet (reference value: 0.94 +/- 0.23 no_unit); type: functional
Mus musculus [42] = assay: Antiobesity activity in diet-induced obese C57Bl/6 mouse assessed as reduction in hepatic triglyceride level at 20 mg/kg/day, po for 4 weeks administered with high-fat diet by Oil Red O staining-based histological method; type: functional; set-up: scale not given: the % may be the effect or the level left

`CCn1c(-c2ccc(OCCN(C)c3ccccn3)cc2)nc2c1c(=O)n(Cc1ccccc1C#N)c(=O)n2C.Cl` showed an Activity (Mus musculus [1]) of 15.08%, an Activity (Mus musculus [2]) of 22.67% and an Activity (Mus musculus [3]) of 22%. It also gave an Activity (Mus musculus [4]) of 56.2%, an Activity (Mus musculus [5]) of 9.92% and an Activity (Mus musculus [6]) of 21.59%. The Cmax [7] was 1740 ng/mL, the Tmax [8] was 4.98 min and the half-life [9] was 5.82 h. The AUC(0-t) [10] was 1780 ng·h/mL, the Vd [11] was 23.6 L/kg and the clearance [12] was 47.1 mL/min/kg. It also gave a Cmax [13] of 465 ng/mL, a Tmax [14] of 2.79 h and a half-life [15] of 6.97 h. The AUC(0-t) [16] was 4190 ng·h/mL, the Vd (Rattus norvegicus) was 67.208 L/kg and the CL/F [17] was 139 mL/min/kg. It also gave a bioavailability [18] of 58.9%, a solubility [19] of 3280 µg/mL and an Activity (Mus musculus [20]) of 12.86%. The Activity (Mus musculus [21]) was “Non-toxic”, the Activity (Mus musculus [22]) was 20% and the Activity (Mus musculus [23]) was 18.18%. It also gave an Activity (Mus musculus [24]) of 8.42 mM, an Activity (Mus musculus [25]) of 7.48 mU and an Activity (Mus musculus [26]) of 24 U/L. The Activity (Mus musculus [27]) was 125.71 U/L, the Activity (Mus musculus [28]) was 1.25 mM and the Activity (Mus musculus [29]) was 0.22 mM. For the same molecule, the Activity (Mus musculus [30]) was 1.31 mM, the Activity (Mus musculus [31]) was 26.8 ng/L and the Activity (Mus musculus [32]) was 2.98. The Activity (Mus musculus [33]) was 7.76 mM, the Activity (Mus musculus [34]) was 4.76 mU and the Activity (Mus musculus [35]) was 18.86 U/L. For the same molecule, the Activity (Mus musculus [36]) was 131.43 U/L, the Activity (Mus musculus [37]) was 0.94 mM and the Activity (Mus musculus [38]) was 0.17 mM. The Activity (Mus musculus [39]) was 1.38 mM, the Activity (Mus musculus [40]) was 25.73 ng/L and the Activity (Mus musculus [41]) was 1.59. It also gave an Activity (Mus musculus [42]) of 16.8%.

Source: ChEMBL document CHEMBL3352801, “Synthesis and lipid-lowering evaluation of 3-methyl-1H-purine-2,6-dione derivatives as potent and orally available anti-obesity agents” (Eur J Med Chem, 2014)
